Source: patent publication US5210193A, “Piperazine derivatives” (American Cyanamid Company, priority 1990, dated 1993)
Converted amounts (≈) assume the structure as drawn.

Columns and labels:
[1] = tested on: Morganella morganii CMC 84-37; experiment: in vitro antibacterial MIC, agar plate dilution; assay type: cell-based; details: Morganella morganii, CMC8437, 18 h, 35° C., read-out: MIC
Protocol: (§1) The in vitro antimicrobial spectrum of the compounds of ths invention were determined by the agar plate dilution method with Mueller-Hinton agar and an inoculum of each test organism of approximately 10^4 colony forming units delivered by the Steers replicating device. The minimal inhibitory concentration (MIC) in mcg/ml is defined as the lowest concentration of test compound that inhibited visible growth after 18 hours incubation at 35° C. Results are given in Table I, with the test compounds identified by the number of their hereinafter described examples.

[2] = tested on: Pseudomonas aeruginosa VGH 84-4; experiment: in vitro antibacterial MIC, agar plate dilution; assay type: cell-based; details: Pseudomonas aeruginosa, VGH844, 18 h, 35° C., read-out: MIC
Protocol: as §1

[3] = tested on: Serratia marcescens K 84-18; experiment: in vitro antibacterial MIC, agar plate dilution; assay type: cell-based; details: Serratia marcescens, K8418, 18 h, 35° C., read-out: MIC
Protocol: as §1

[4] = tested on: Staphylococcus aureus VGH 84-45; experiment: in vitro antibacterial MIC, agar plate dilution; assay type: cell-based; details: Staphylococcus aureus, VGH8445, 18 h, 35° C., read-out: MIC
Protocol: as §1

[5] = tested on: Streptococcus faecalis UCI 85-19; experiment: in vitro antibacterial MIC, agar plate dilution; assay type: cell-based; details: Enterococcus faecalis, UCI8519, 18 h, 35° C., read-out: MIC
Protocol: as §1

Escherichia coli LL 311 = experiment: in vitro antibacterial MIC, agar plate dilution; assay type: cell-based; details: Escherichia coli, LL311, 18 h, 35° C., read-out: MIC
Protocol: as §1

[6] = tested on: Pseudomonas aeruginosa LL-1244; experiment: in vitro antibacterial MIC, agar plate dilution; assay type: cell-based; details: Pseudomonas aeruginosa, LL1244, 18 h, 35° C., read-out: MIC
Protocol: as §1

[7] = tested on: Staphylococcus aureus Smith; experiment: in vitro antibacterial MIC, agar plate dilution; assay type: cell-based; details: Staphylococcus aureus, 18 h, 35° C., read-out: MIC
Protocol: as §1

[8] = tested on: Proteus rettgeri CMC 84-41; experiment: in vitro antibacterial MIC, agar plate dilution; assay type: cell-based; details: Providencia rettgeri, CMC8441, 18 h, 35° C., read-out: MIC
Protocol: as §1

[9] = tested on: Streptococcus faecalis VGH 84-65; experiment: in vitro antibacterial MIC, agar plate dilution; assay type: cell-based; details: Enterococcus faecalis, VGH8465, 18 h, 35° C., read-out: MIC
Protocol: as §1

[10] = tested on: Escherichia coli ATCC 25922; experiment: in vitro antibacterial MIC, agar plate dilution; assay type: cell-based; details: Escherichia coli, ATCC25922, 18 h, 35° C., read-out: MIC
Protocol: as §1

[11] = tested on: Escherichia coli CMC 84-11; experiment: in vitro antibacterial MIC, agar plate dilution; assay type: cell-based; details: Escherichia coli, CMC8411, 18 h, 35° C., read-out: MIC
Protocol: as §1

[12] = tested on: Staphylococcus aureus ATTC 29213; experiment: in vitro antibacterial MIC, agar plate dilution; assay type: cell-based; details: Staphylococcus aureus, ATTC29213, 18 h, 35° C., read-out: MIC
Protocol: as §1

[13] = tested on: Serratia marcescens VGH 84-30; experiment: in vitro antibacterial MIC, agar plate dilution; assay type: cell-based; details: Serratia marcescens, VGH8430, 18 h, 35° C., read-out: MIC
Protocol: as §1

[14] = tested on: Staphylococcus aureus ATCC 25913; experiment: in vitro antibacterial MIC, agar plate dilution; assay type: cell-based; details: ATCC25913, 18 hours, 35° C.
Protocol: as §1

[15] = tested on: Enterobacter aerogenes VGH 84-36; experiment: in vitro antibacterial MIC, agar plate dilution; assay type: cell-based; details: Klebsiella aerogenes, VGH8436, 18 hours, 35° C., read-out: MIC
Protocol: as §1

Klebsiella pneumoniae AD [16] = experiment: in vitro antibacterial MIC, agar plate dilution; assay type: cell-based; details: Klebsiella pneumoniae, 18 h, 35° C., read-out: MIC
Protocol: as §1

[17] = tested on: Streptococcus faecalis ATTC 29212; experiment: in vitro antibacterial MIC, agar plate dilution; assay type: cell-based; details: Enterococcus faecalis, ATTC29212, 18 hours, 35° C., read-out: MIC
Protocol: as §1

[18] = tested on: Morganella morganii VGH 84-11; experiment: in vitro antibacterial MIC, agar plate dilution; assay type: cell-based; details: VGH8411, 18 hours, 35° C., read-out: MIC
Protocol: as §1

[19] = tested on: Klebsiella pneumoniae MOR 84-4; experiment: in vitro antibacterial MIC, agar plate dilution; assay type: cell-based; details: Klebsiella pneumoniae, MOR844, 18 h, 35° C., read-out: MIC
Protocol: as §1

[20] = tested on: Enterobacter cloacae VGH 84-37; experiment: in vitro antibacterial MIC, agar plate dilution; assay type: cell-based; details: Enterobacter cloacae, VGH8437, 18 h, 35° C., read-out: MIC
Protocol: as §1

Klebsiella pneumoniae AD [21] = experiment: in vivo antibacterial activity, survival of infected mice (Table II); design: species or system Charles River CD-1 mice; details: subcutaneous
Protocol: Charles River CD-1 mice were infected with either Klebsiella pneumoniae AD or Staphylococcus aureus Smith. A single subcutaneous dose of the test compound was administered 1/2 hour after infection. […] The results appear in Tables II and III, wherein the representative test compounds are identified by the number of their hereinafter described examples.

Compound | MIC [2] [µg/mL] | MIC [7] [µg/mL] | MIC [8] [µg/mL] | MIC [10] [µg/mL] | MIC [11] [µg/mL] | MIC [14] [µg/mL] | MIC [15] [µg/mL] | MIC (Klebsiella pneumoniae AD [16]) [µg/mL] | MIC [17] [µg/mL] | MIC [18] [µg/mL] | MIC [19] [µg/mL] | MIC [20] [µg/mL] | also measured
CCn1cc(C(=O)O)c(=O)c2cc(F)c(N3CCNC(CF)C3)cc21 (stereo not drawn) [Example 24] | 2 (≈ 5.69 µM) | ≤ 0.12 | ≤ 0.12 | ≤ 0.12 | ≤ 0.12 | ≤ 0.12 | ≤ 0.12 | ≤ 0.12 | 2 (≈ 5.69 µM) | ≤ 0.12 | ≤ 0.12 | ≤ 0.12 | –
CCn1cc(C(=O)O)c(=O)c2cc(F)c(N3CCNC(CN4CCN(C)CC4)C3)cc21 (stereo not drawn) [Example 4, 1-Ethyl-6-fluoro 1,4-dihydro-7-[3-[(4-methyl-1-piperazinyl)methyl]-1-piperazinyl]-4-oxo-3-quinolinecarboxylic acid] | 64 (≈ 148 µM) | 8 (≈ 18.5 µM) | 32 (≈ 74.2 µM) | 8 (≈ 18.5 µM) | 8 (≈ 18.5 µM) | 64 (≈ 148 µM) | 16 (≈ 37.1 µM) | 8 (≈ 18.5 µM) | – | 4 (≈ 9.27 µM) | 16 (≈ 37.1 µM) | 4 (≈ 9.27 µM) | Survival Ratio 7 Days After Infection (Klebsiella pneumoniae AD [21]; 0.25 mg/kg single dose): 0/5; Survival Ratio 7 Days After Infection (Klebsiella pneumoniae AD [21]; 1 mg/kg single dose): 0/5; Survival Ratio 7 Days After Infection (Klebsiella pneumoniae AD [21]; 4 mg/kg single dose): 4/5; Survival Ratio 7 Days After Infection (Klebsiella pneumoniae AD [21]; 16 mg/kg single dose): 5/5; Survival Ratio 7 Days After Infection (Klebsiella pneumoniae AD [21]; 64 mg/kg single dose): 5/5
CCn1cc(C(=O)O)c(=O)c2cc(F)c(N3CCNC(c4cc5ccccc5o4)C3)cc21 (stereo not drawn) [Example 46, 7-[3-(2-Benzofuranyl)-1-piperazinyl]-1-ethyl-6-fluoro-1,4-dihydro-4-oxo-3-quinolinecarboxylic acid] | 8 (≈ 18.4 µM) | ≤ 0.12 | 0.5 (≈ 1.15 µM) | 0.25 (≈ 0.574 µM) | 0.25 (≈ 0.574 µM) | ≤ 0.12 | 1 (≈ 2.3 µM) | 0.5 (≈ 1.15 µM) | 1 (≈ 2.3 µM) | 0.5 (≈ 1.15 µM) | 1 (≈ 2.3 µM) | 0.5 (≈ 1.15 µM) | –

Now from value to compound, other results behind:

MIC [2] [µg/mL] | MIC [7] [µg/mL] | MIC [8] [µg/mL] | MIC [10] [µg/mL] | MIC [11] [µg/mL] | MIC [14] [µg/mL] | MIC [15] [µg/mL] | MIC (Klebsiella pneumoniae AD [16]) [µg/mL] | MIC [17] [µg/mL] | MIC [18] [µg/mL] | MIC [19] [µg/mL] | MIC [20] [µg/mL] | Compound | also measured
16 (≈ 36.6 µM) | 0.25 (≈ 0.572 µM) | 1 (≈ 2.29 µM) | 0.25 (≈ 0.572 µM) | 0.25 (≈ 0.572 µM) | – | – | – | – | – | – | – | CCn1cc(C(=O)O)c(=O)c2c(F)c(F)c(N3CCNC(c4ccsc4)C3)c(F)c21 (stereo not drawn) [Example 90, 1-Ethyl-5,6,8-trifluoro-1,4-dihydro-4-oxo-7-[3-(3-thienyl)-1-piperazinyl]-3-quinolinecarboxylic acid] | MIC [1]: 0.25 µg/mL (≈ 0.572 µM); MIC [3]: 1 µg/mL (≈ 2.29 µM); MIC [4]: 0.25 µg/mL (≈ 0.572 µM); MIC [5]: 8 µg/mL (≈ 18.3 µM); MIC (Escherichia coli LL 311): 0.25 µg/mL (≈ 0.572 µM); MIC [6]: 32 µg/mL (≈ 73.2 µM); MIC [9]: 8 µg/mL (≈ 18.3 µM); MIC [12]: 1 µg/mL (≈ 2.29 µM); MIC [13]: 16 µg/mL (≈ 36.6 µM)
> 256 | 0.5 (≈ 1.06 µM) | 8 (≈ 17 µM) | 8 (≈ 17 µM) | 8 (≈ 17 µM) | 1 (≈ 2.13 µM) | 64 (≈ 136 µM) | 8 (≈ 17 µM) | 32 (≈ 68 µM) | 8 (≈ 17 µM) | 16 (≈ 34 µM) | 16 (≈ 34 µM) | CCn1cc(C(=O)O)c(=O)c2cc(F)c(N3CCNC(c4cc(Cl)sc4Cl)C3)cc21 (stereo not drawn) [Example 51] | –
32 (≈ 74.5 µM) | 0.25 (≈ 0.582 µM) | 2 (≈ 4.66 µM) | 1 (≈ 2.33 µM) | 1 (≈ 2.33 µM) | 0.25 (≈ 0.582 µM) | 2 (≈ 4.66 µM) | 1 (≈ 2.33 µM) | 0.25 (≈ 0.582 µM) | 2 (≈ 4.66 µM) | 2 (≈ 4.66 µM) | 2 (≈ 4.66 µM) | CCn1cc(C(=O)O)c(=O)c2cc(F)c(N3CCNC(c4cc(C)sc4C)C3)cc21 (stereo not drawn) [Example 48, 7-[3-(2,5-Dimethyl-3-thienyl)-1-piperazinyl]-1-ethyl-6-fluoro-1,4-dihydro-4-oxo-3-quinolinecarboxylic acid] | –
